Measurements as given in patent EP1708721B1, “MYOCARDIAL PERFUSION IMAGING USING ADENOSINE RECEPTOR AGONISTS” (Gilead Sciences, Inc., priority 2004, dated 2005).

Legend:
[1] = tested on: subjects (26 men, 9 women); test: Example 6: stress/rest SPECT myocardial perfusion imaging, adenosine versus CVT-3146; assay type: in vivo, human
Experimental: To determine the ability of CVT-3146 to produce coronary hyperemia and accurately detect CAD, 35 subjects (26 men, 9 women; 67±10 years) underwent both A and CVT-3146 stress/rest MPI, with 10.0±9.1 days between studies. […] CVT-3146 [400 mcg (n=18), 500 mcg (n=17)] was administered as an IV bolus immediately followed by a saline flush, and then a Tc-99m radiopharmaceutical [sestamibi (n=34), tetrofosmin (n=1)]. SPECT images were uniformly processed, intermixed with control studies (normal and fixed-only defects), and interpreted by three observers in a blinded fashion using a 17-segment model. Quantitative analysis was also performed using 4D MSPECT. In addition to three separate readings, a consensus interpretation was performed and then a direct, same-screen comparison of A and CVT-3146 images undertaken to determine relative differences, using 5 regions per study.

[2] = tested on: awake rats; test: Example 5: sympathoexcitation, heart rate, blood pressure and plasma catecholamines after i.v. bolus; assay type: in vivo
Experimental: The present study was carried out to determine whether CVT-3146, a selective A2A adenosine receptor agonist, causes sympathoexcitation. CVT-3146 (0.31µg/kg-50 µg/kg) was given as a rapid i.v. bolus to awake rats and heart rate (HR) and blood pressure (BP) were monitored. CVT-3146 caused an increase in BP and systolic pressure (SP) at lower doses while at higher doses there was a decrease in BP and SP. […] The increase in HR was evident at the lowest dose of CVT-3146 at which there was no appreciable decrease in BP. ZM241385 (30 µg/kg , N=5), an A2A receptor antagonist, attenuated the decrease in BP (CVT-3146: 14±3%, ZM: 1±1 %) and the increase in HR (CVT: 27±3%, ZM: 18±3%) caused by CVT-3146. Pretreatment with metoprolol (MET, 1 mg/kg, n=5), a beta-blocker, attenuated the increase in HR (CVT: 27±3%, MET: 15±2%), but had no effect on hypotension caused by CVT-3146. In the presence of hexamethonium (HEX, 10 mg/kg, n=5), a ganglionic blocker, the tachycardia was prevented (CVT: 27±3%, HEX: -1±2%), but BP was further reduced (CVT: -11±2%, HEX: -49±5%).

[3] = tested on: subjects (27 men, 9 women); test: Example 7: pharmacologic stress myocardial perfusion imaging protocol, adverse effects and hemodynamics; assay type: in vivo, human
Text: 36 subjects (27 men, 9 women; 67±10 years) were studied with two doses of CVT-3146 [400 mcg (n=18), 500 mcg (n=18)], administered as an IV bolus, as part of a pharmacologic stress myocardial perfusion imaging protocol.

[4] = tested on: human subjects; test: Example 2: dose range study, coronary flow velocity, heart rate and blood pressure after IV bolus; assay type: in vivo
Experimental: The study included patients undergoing a clinically indicated coronary catheterization with no more than a 70% stenosis in any coronary artery and no more than a 50% stenosis of the study vessel had CBFv determined by Doppler flow wire. Study subject were selected after measuring baseline and peak CBFv after an intracoronary (IC) injection of 18 µg of Ado. 36 subjects were identified as meeting the study criteria of having a peak to baseline CBFv ration of ≥ 2.5 in response to Adenosine,
CVT-3146 was administered to the study subjects by IV bolus in less that 10 seconds in amounts ranging from 10 µg to 500 µg.
The effectiveness of both compounds was measured by monitoring coronary flow velocity. Other coronary parameters that were monitored included heart rate and blood pressure. These parameters were measured in order to evaluate the time to peak dose response, the magnitude of the dose response and the duration of the dose response. Adverse events were also monitored. Coronary blood flow velocity was measured at the left anterior descending coronary artery (LAD) or left circumflex coronary artery (LCx). The velocity measurements were taken by following standard heart catheterization techniques and inserting a 0.014 inch Doppler-tipped Flowire into the LAD or LCx vessel and thereafter monitoring blood flow velocity. In addition, hemodynamic and electrocardiographic measurements were recorded continuously.
Overall, 36 human subjects (n=36) were evaluated. Of the 36, 18 were female and 18 were male. Their mean age was 53.4 and they ranged from 24-72 years in age. Of the 36 subjects evaluated, the LAD vessel of 31 subjects was monitored, and the LCx vessel of 5 subjects was monitored. The following doses (µg) of CVT-3146 were given to the subjects in a single iv bolus: 10 (n=4); 30 (n=6); 100 (n=4); 300 (n=7); 400 (n=9); 500 (n=6).

[5] = tested on: anesthetized dog; test: Example 4: blood flow velocity in various vascular beds, intravascular Doppler catheter; assay type: in vivo; settings: 1.0 µg/kg intravenous bolus
Text: The effects of CVT-3146 were quantified as the average peak blood flow velocity (APV) using intravascular Doppler transducer tipped catheter. Heart rate (HR) and systemic arterial blood pressure (BP) were also monitored. […] Increased blood flow velocity was associated with a small transient increase in HR (16 bpm) and decrease in BP (12 mmHg).

[6] = tested on: awake dogs; test: increase of coronary blood flow velocity (CBFv) in awake dogs, potency versus adenosine (background statement); assay type: in vivo; settings: relative to adenosine
[7] = direct comparison of A and CVT-3146 images, 5 regions per study
[8] = peak hemodynamic changes, mean±S.D., 400 and 500 mcg

## CNC(=O)c1cnn(-c2nc(N)c3ncn([C@@H]4O[C@H](CO)[C@@H](O)[C@H]4O)c3n2)c1 [CVT-3146, (1-{9-[(4S,2R,3R,5R)-3,4-dihydroxy-5-(hydroxymethyl)oxolan-2-yl]-6-aminopurin-2-yl}pyrazol-4-yl)-N-methylcarboxamide]
[1]; SPECT MPI, 4D MSPECT, CVT-3146 400 or 500 mcg IV bolus, A infusion
  summed scores following stress, quantitative methods of analysis: 13.6±1.6
[1]; SPECT MPI, 17-segment model, CVT-3146 400 or 500 mcg IV bolus, A infusion
  summed scores following stress, visual: 13.2±1.3
[1]; [7]
  regional concordance for ischemia extent: 86.3%
  regional concordance for ischemia severity: 83.4%
[2]; CVT-3146 alone
  increase in HR: 27±3%
[2]; CVT-3146 alone (comparison with ZM241385)
  decrease in BP: 14±3%
[2]; CVT-3146 alone (comparison with hexamethonium)
  BP (change): -11±2%
[3]; 36 subjects
  ST abnormalities developed: 7 pts
  T wave abnormalities developed: 5 pts
[3]; 400-mcg group
  Flushing: 17%
  dizziness: 11%
  dyspnea: 17%
[3]; 400 mcg dose
  mean change in HR response: 34.8%
[3]; 500-mcg group
  Flushing: 44%
  dizziness: 28%
  dyspnea: 44%
[3]; 500 mcg dose
  mean change in HR response: 44.2%
[3]; Thirty min after CVT-3146
  BP changes deviated from baseline: < 2%
  HR remained above baseline by: 8.6%
[3]; both doses, 36 subjects
  abdominal pain: 11%
  chest discomfort: 33%
  headache: 25%
[3]; either dose
  systolic BP did not fall below: ≥ 90 mmHg
[3]; exacerbation of a migraine headache, required hospitalization
  serious AE occurred: One
[3]; in vivo
  2nd or 3rd degree AV block: No 2nd or 3rd degree AV block was noted
  serious arrhythmias: no serious arrhythmias
  time of peak hemodynamic effect, diastolic BP: 8 min
  time of peak hemodynamic effect, heart rate (HR): ≤ 0.033 h
  time of peak hemodynamic effect, systolic blood pressure (BP): 4 min
[3]; [8]
  Diastolic BP, Absolute Change: -5.4±7.2 mmHg
  Diastolic BP, Relative Change: -7.9%±10.5%
  Heart Rate, Absolute Change: +21.9±10.4 beats per min
  Heart Rate, Relative Change: +36.7%+21.0%
  Systolic BP, Absolute Change: -5.9±10.7 mmHg
  Systolic BP, Relative Change: 4.1%±7.6%
[3]; share of AEs
  AEs mild to moderate: 96%
  AEs resolved within 15 min without treatment: 91%
[4]; 400 µg IV bolus
  Maximum decrease in diastolic BP: 10 ± 5 mmHg
  Maximum decrease in systolic BP: 20 ± 8 mmHg
  Maximum increase in heart rate: 18 ± 8 bpm
  time coronary blood flow velocity ≥ 2.5-fold above baseline was maintained: 2.8 min
  time of maximum decrease in diastolic BP after dosing: about 1 minute
  time of maximum increase in heart rate after dosing: about 1 minute
[4]; IV bolus
  amount at which plateau peak velocity is reached: less than 100 µg
  amount that increases peak flow velocity (as low as): 10 µg
[4]; all doses (10 to 500 µg IV bolus)
  time at which peak flow was reached: about 30 seconds
[4]; doses above about 100 µg
  peak effects: equivalent to 18 µg adenosine administered IC
[5]
  decrease in BP: 12 mmHg
  small transient increase in HR: 16 bpm
  time to dissipation of effect on blood flow velocity: less than ten
  time to peak of effect on blood flow velocity: less than 30 sec
[5]; brain arterial vasculature (BA)
  APV increased (average peak blood flow velocity): 1.4 ± 0.1 fold
[5]; forelimb artery (FA)
  APV increased (average peak blood flow velocity): 1.2 ± 0.1 fold
[5]; left circumflex coronary artery (LCX)
  APV increased (average peak blood flow velocity): 3.1 ± 0.2 fold
[5]; pulmonary artery (PA)
  APV increased (average peak blood flow velocity): 1.1 ± 0.01 fold
[6]
  more potent than adenosine (Ado) in increasing coronary blood flow velocity (CBFv): > 100 fold
